# Reference: article PMC3873281, “Discovery and Preclinical Characterization of Novel Small Molecule TRK and ROS1 Tyrosine Kinase Inhibitors for the Treatment of Cancer and Inflammation” (PLoS ONE, 2013)
# Where two headings read alike, the source gives them in different places.
# Tests used:
# [1] = tested on: HCC78 lung cancer cells; experiment: HCC78 lung carcinoma cell growth, SRB assay; type: cell-based; conditions: Homo sapiens, HCC78, 144 h, read-out: IC50, proliferation of HCC78 cells
# Method: (§1) Adherent cells were plated at 10,000 cells per well in 96-well plates in respective medium. […] For cell cycle analysis, cells were plated in 6 well plates and treated for the indicated time points. Cells were fixed, stained with propidium iodide, and distribution in different phases of cell cycle was evaluated using flow cytometry.
# (§2) Protein was extracted and immunoblotted with phospho-ROS1 and total ROS1 antibodies. C. […] Ba/F3 cells stably transfected with vector or FIG-ROS1 were plated in equal numbers and growth of the cells after 3 days was measured by SRB assay (F).
# [2] = tested on: HCC78 cells; experiment: Cell cycle analysis of HCC78 cells, flow cytometry; type: cell-based; conditions: 1 µM
# Method: as §1, §2
# [3] = tested on: NIH3T3:FIG-ROS1 (S) cells; experiment: NIH3T3:FIG-ROS1 (S) cell proliferation, SRB assay; type: cell-based
# Method: as §1, §2
# [4] = tested on: FIG-ROS1; experiment: Phosphorylation of ROS1 fused to FIG in NIH3T3 cells, Western blotting; type: cell-based; conditions: 3 days
# Method: as §2
# [5] = tested on: NIH3T3:FIG-ROS1 (S) xenograft
# Method: Xenograft experiments were performed in nude mice as previously described. Briefly, a mixture of cells suspended in 0.0375 mL RPMI+10% FBS and 0.0625 mL Matrigel was injected s.c. into the hind left flank of each mouse.
# Tumor volumes (A) and body weight (C) were measured biweekly. After sacrifice, tumor weights (B) were recorded and the amount of drug in serum and tumors were quantified using LC-MS/MS (D). *-significant at p<0.01; **-significant at p<0.001.
# [6] = tested on: MMP-3; experiment: PMA- or NGF-induced MMP-3 expression in PC12 cells, realtime PCR; type: cell-based
# Method: RNA was isolated using the Cells-to-Ct kit and realtime PCR was performed using TaqMan primers and probes on the ABI 7900 (Life Technologies). cDNA array experiments were conducted using TaqMan primers and probes on the ABI 7900 PCR machine.
# Figure 3 GTx-186 inhibits inflammation in vitro. Cells were serum starved for 2 days, pre-treated with indicated concentrations of GTx-186 for 30 min and treated with growth factors or cytokines for 12–16 hrs. RNA was extracted, cDNA synthesized, and expression of inflammatory genes were measured by realtime PCR using Taqman primer and probes. All experiments were performed in triplicate and repeated at least three times.
# [7] = tested on: croton oil-induced dermatitis; experiment: Croton oil-induced atopic dermatitis; conditions: s.c., twice, 16 hrs and 2 hrs before croton oil
# [8] = tested on: carrageenan-induced air-pouch inflammation; experiment: Carrageenan-induced air pouch inflammation model; type: in vivo, Sprague Dawley rats; conditions: GTx-186 40 mg/kg; indomethacin 30 mg/kg s.c.
# Method: Cytokine arrays were obtained from Ray Biotech (Norcross, GA) and arrays were processed according to manufacturer’s instructions. Briefly, arrays were incubated overnight with equal volume of air pouch exudates, washed, and incubated with secondary antibodies before developing using enhanced chemiluminescence.
# Air was injected in the flanks of Sprague Dawley rats four days (20 mL) and two days (10 mL) before injection of carrageenan (1 mL of 2% carrageenan) in the pouch. Six hours after carrageenan administration, animals were sacrificed, 5 mL saline was injected into the pouch, pouch exudates were collected and the number of leukocytes and macrophages infiltrated into the pouch were counted under a microscope.
# Figure 5 GTx-186 inhibits carrageenan-induced air-pouch inflammation in rats. A–C. A pouch was created subcutaneously in one flank of rats (n = 3) by injecting 20 ml air four days before and 10 ml air two days before treatment. […] Six hours after carrageenan administration, the animals were sacrificed, 5 ml saline was injected into pouch to flush the pouch fluid and the number of leukocytes and macrophages infiltrated into the pouch were counted under a microscope. TNF-α was measured using an ELISA in the pouch exudates from the experiment in panel B. (C). D. Effect of GTx-186 on inflammatory cytokines in carrageenan-induced air-pouch inflammation was measured in the pouch exudates using a cytokine array. Key cytokines were quantified and expressed as bar graphs on the right. […] 186-GTx-186; Indom-Indomethacin; Dex-Dexamethasone; TNF-Tumor Necrosis Factor; IL-Interleukin; CINC-Cytokine-Induced Neutrophil-Chemoattractant protein.
# [9] = daily, GTx-186 20 mg/kg/day i.v., crizotinib 75 mg/kg p.o.
smiles,measurement,setting,value
C[C@@H](Oc1cc(-c2cnn(C3CCNCC3)c2)cnc1N)c1c(Cl)ccc(F)c1Cl [crizotinib],IC50,[1],495 nM
same,time of treatment at which cells were arrested in G0/G1 phase,[2],6 days
same,IC50,"[3]; 72 h, read-out: IC50, proliferation of NIH3T3:FIG-ROS1 (S), 3 days",24 nM
same,IC50,"[3]; read-out: IC50, proliferation of NIH3T3:FIG-ROS1 (S), 3 days",26 nM
same,phosphorylation of ROS1 fused to FIG,[4],extremely effective in inhibiting
same,tumor growth inhibition,[5]; crizotinib 75 mg/kg p.o. daily,90%
same,tumor growth (tumor volume),[5]; [9],significantly reduced
same,tumor weight,[5]; [9],significantly reduced
same,"body weight, visible toxicity","[5]; mouse, in vivo",without affecting body weight
C[C@@H]1C[C@H]2[C@@H]3CCC4=CC(=O)C=C[C@]4(C)[C@@]3(F)[C@@H](O)C[C@]2(C)[C@@]1(O)C(=O)CO [dexamethasone],MMP-3 expression induced by PMA,[6],inhibited
same,"expression of inflammatory pathway genes, including NGF, in ear punches",[7],markedly inhibited
COc1ccc2c(c1)c(CC(=O)O)c(C)n2C(=O)c1ccc(Cl)cc1 [indomethacin],"TNF-α levels in pouch exudates after carrageenan (ELISA, cytokine array)",[8],effectively inhibited
same,"carrageenan-induced CINC-1, CINC-2, IL-6, and LIX in pouch exudates (cytokine array)",[8],only GTx-186 inhibited
same,"carrageenan-induced CINC-3, TIMP-1, PDGFa, MMP-8, and MCP-1 in pouch exudates (cytokine array)",[8],neither GTx-186 nor indomethacin inhibited
same,"carrageenan-induced TNF-α, IL-1β, fractalkine, IL-13, and leptin in pouch exudates (cytokine array)",[8],inhibited
